Reference: PMC7995547, “ω‐Imidazolyl‐alkyl derivatives as new preclinical drug candidates for treating non‐alcoholic steatohepatitis” (Physiological Reports, 2021)
Entries after “also recorded” stand apart in the source; their conditions may differ.

Test system: male CD/Crl:CD(SD) rats
Experiment: Acute toxicity study, single peroral application, 14‐day observation
Format: in vivo
Settings: for Ataxia / Chromodacryorrhea / Dyspnoea / Inhibition of body weight gain / Mean body weight gain, After 7 d / Mean body weight, After 7 d / Mortality within 6 h / Mortality within 24 h / Necropsy findings / Piloerection / Ptosis / Reduced motility / Reduced muscle tone / Mean body weight gain, End / Mean body weight, End / Mean body weight, Start / Mortality within 7 d / Mortality within 14 d: p.o., males, n = 5; for Mean body weight gain, End / Mean body weight, End: 14‐day observation; for Mean body weight, Start: before administration; for Premature deaths in the acute toxicity study: rat, in vivo
Method: In total, 90 male CD®/Crl:CD(SD) rats from Charles River Laboratories, Deutschland GmbH, were used after randomization. Five rats were selected for each concentration of the corresponding experimental substance. […] In addition, a control group was formed with five rats receiving only the HPMC gel.
Feeding was stopped approximately 16 h before the start of test substance application, whereas tap water continued to be available ad libitum. Granulated structural wood was used as bedding material in the cages; the material was changed and the cages were cleaned twice a week. […] The rooms were illuminated (approximately 150 lux from a ceiling height of approximately 1.50 m) and darkened for 12 h in turns.
Each animal was kept under observation, so that any behavior deviating from the norm could be systematically recorded. Observations were made before the peroral application of the respective active substance, immediately after, and 5, 15, 30, and 60 min and 3, 6, and 24 h after the start of application. […] We focused on the changes in the skin and fur, the eyes and mucous membranes, respiration, circulation, the autonomous and central nervous systems, somatomotor activity, and behavior patterns. They were also observed for possible tremors, convulsions, salivation, diarrhea, lethargy, sleep, and coma. Mortality checks were performed at least once a day to minimize the loss of animals during the study. The time of death was recorded as accurately as possible. Individual body weights were recorded before the administration of experimental substances and, subsequently, at weekly intervals, until the end of the study and at death. Weight changes were calculated when survival exceeded 1 day.
At the end of the experiments, all surviving animals were sacrificed, dissected, and examined macroscopically. All notable pathological changes were recorded. A microscopic examination of all organs showing obvious lesions was performed on animals that survived for 24 h or longer. Autopsy and macroscopic inspection of prematurely deceased animals were performed as soon as possible after death.

OCCCCCCCCCCCCn1ccnc1 [I‐ol, 12‐imidazolyl‐1‐dodecanol]
Ataxia (10 mg/kg b.w.): None
Chromodacryorrhea (10 mg/kg b.w.): None
Dyspnoea (10 mg/kg b.w.): None
Inhibition of body weight gain (10 mg/kg b.w.): None
Mean body weight gain, After 7 d (10 mg/kg b.w.): +17.0%
Mean body weight, After 7 d (10 mg/kg b.w.): 259.2 g
Mortality within 6 h (10 mg/kg b.w.): 0
Mortality within 24 h (10 mg/kg b.w.): 0
Necropsy findings (10 mg/kg b.w.): None
Piloerection (10 mg/kg b.w.): None
Ptosis (10 mg/kg b.w.): None
Reduced motility (10 mg/kg b.w.): None
Reduced muscle tone (10 mg/kg b.w.): None
Mean body weight gain, End (10 mg/kg b.w.): +30.0%
Mean body weight, End (10 mg/kg b.w.): 288.0 g
Mean body weight, Start (10 mg/kg b.w.): 221.6 g
Mortality within 7 d (10 mg/kg bw): 0
Mortality within 14 d (10 mg/kg bw): 0
Ataxia (50 mg/kg b.w.): None
Chromodacryorrhea (50 mg/kg b.w.): None
Dyspnoea (50 mg/kg b.w.): None
Inhibition of body weight gain (50 mg/kg b.w.): None
Mean body weight gain, After 7 d (50 mg/kg b.w.): +22.2%
Mean body weight, After 7 d (50 mg/kg b.w.): 278.4 g
Mortality within 6 h (50 mg/kg b.w.): 0
Mortality within 24 h (50 mg/kg b.w.): 0
Necropsy findings (50 mg/kg b.w.): None
Piloerection (50 mg/kg b.w.): None
Ptosis (50 mg/kg b.w.): None
Reduced motility (50 mg/kg b.w.): None
Reduced muscle tone (50 mg/kg b.w.): None
Mean body weight gain, End (50 mg/kg b.w.): +36.3%
Mean body weight, End (50 mg/kg b.w.): 310.4 g
Mean body weight, Start (50 mg/kg b.w.): 227.8 g
Mortality within 7 d (50 mg/kg bw): 0
Mortality within 14 d (50 mg/kg bw): 0
Ataxia (100 mg/kg b.w.): None
Chromodacryorrhea (100 mg/kg b.w.): None
Dyspnoea (100 mg/kg b.w.): None
Inhibition of body weight gain (100 mg/kg b.w.): None
Mean body weight gain, After 7 d (100 mg/kg b.w.): +18.5%
Mean body weight, After 7 d (100 mg/kg b.w.): 272.6 g
Mortality within 6 h (100 mg/kg b.w.): 0
Mortality within 24 h (100 mg/kg b.w.): 0
Necropsy findings (100 mg/kg b.w.): None
Piloerection (100 mg/kg b.w.): None
Ptosis (100 mg/kg b.w.): None
Reduced motility (100 mg/kg b.w.): None
Reduced muscle tone (100 mg/kg b.w.): None
Mean body weight gain, End (100 mg/kg b.w.): +33.0%
Mean body weight, End (100 mg/kg b.w.): 305.8 g
Mean body weight, Start (100 mg/kg b.w.): 230.0 g
Mortality within 7 d (100 mg/kg bw): 0
Mortality within 14 d (100 mg/kg bw): 0
Ataxia (250 mg/kg b.w.): None
Chromodacryorrhea (250 mg/kg b.w.): None
Dyspnoea (250 mg/kg b.w.): None
Inhibition of body weight gain (250 mg/kg b.w.): None
Mean body weight gain, After 7 d (250 mg/kg b.w.): +19.6%
Mean body weight, After 7 d (250 mg/kg b.w.): 266.8 g
Mortality within 6 h (250 mg/kg b.w.): 0
Mortality within 24 h (250 mg/kg b.w.): 0
Necropsy findings (250 mg/kg b.w.): None
Piloerection (250 mg/kg b.w.): None
Ptosis (250 mg/kg b.w.): None
Reduced motility (250 mg/kg b.w.): None
Reduced muscle tone (250 mg/kg b.w.): None
Mean body weight gain, End (250 mg/kg b.w.): +34.2%
Mean body weight, End (250 mg/kg b.w.): 299.2 g
Mean body weight, Start (250 mg/kg b.w.): 223.0 g
Toxic signs (250 mg/kg bw): None
Mortality within 7 d (250 mg/kg bw): 0
Mortality within 14 d (250 mg/kg bw): 0
Ataxia (500 mg/kg b.w.): None
Chromodacryorrhea (500 mg/kg b.w.): None +
Dyspnoea (500 mg/kg b.w.): None
Inhibition of body weight gain (500 mg/kg b.w.): None
Mean body weight gain, After 7 d (500 mg/kg b.w.): +29.0%
Mean body weight, After 7 d (500 mg/kg b.w.): 294.2 g
Mortality within 6 h (500 mg/kg b.w.): 0
Mortality within 24 h (500 mg/kg b.w.): 0
Necropsy findings (500 mg/kg b.w.): None
Ptosis (500 mg/kg b.w.): None
Reduced motility (500 mg/kg b.w.): None
Reduced muscle tone (500 mg/kg b.w.): None
Mean body weight gain, End (500 mg/kg b.w.): +46.6%
Mean body weight, End (500 mg/kg b.w.): 334.2 g
Mean body weight, Start (500 mg/kg b.w.): 228.0 g
Toxic signs (500 mg/kg bw): None
Mortality within 7 d (500 mg/kg bw): 0
Mortality within 14 d (500 mg/kg bw): 0
Chromodacryorrhea (1000 mg/kg b.w.): None
Inhibition of body weight gain (1000 mg/kg b.w.): None
Mean body weight gain, After 7 d (1000 mg/kg b.w.): +22.4%
Mean body weight, After 7 d (1000 mg/kg b.w.): 271.2 g
Mortality within 6 h (1000 mg/kg b.w.): 0
Mortality within 24 h (1000 mg/kg b.w.): 0
Necropsy findings (1000 mg/kg b.w.): None
Piloerection (1000 mg/kg b.w.): None
Ptosis (1000 mg/kg b.w.): None
Mean body weight gain, End (1000 mg/kg b.w.): +36.6%
Mean body weight, End (1000 mg/kg b.w.): 302.6 g
Mean body weight, Start (1000 mg/kg b.w.): 221.6 g
Toxic signs (1000 mg/kg bw): reduced motility was observed, with reduced muscle tone, ataxia, and dyspnea; also recorded: Reduced motility and muscle tone, ataxia, dyspnoea
Mortality within 7 d (1000 mg/kg bw): 0
Mortality within 14 d (1000 mg/kg bw): 0
Macroscopic necropsy findings (all doses): None
Premature deaths in the acute toxicity study (male, CD/Crl:CD(SD), 14 days): None of the 30 rats died
Premature deaths in the acute toxicity study: did not lead to any death
Dose up to which no acute toxicity was shown (rats, single p.o. dose): 1000 mg/kg b.w.
Lowest lethal dose (rats, single p.o. dose): >1000 mg/kg bw
No Observed Adverse Effect Level (rats, single p.o. dose): 500 mg/kg bw
LD50(14 d) (rats, single p.o. dose, 14 days): >1000 mg/kg bw
